Results published in ChEMBL document CHEMBL1201862, “PubChem BioAssay data set” (2004).
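Method: 48-hour compound exposure of cells in 96-well plates, five concentrations, linear interpolation of endpoints. GI50 marks 50% less growth.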 The source made the active and inactive calls. Cut-off read from the data, not from the text of the source: active = GI50 up to about 1.1 µM and inactive = higher.

How the values were obtained:
Test in all cases: DTP human tumour cell line panel, 48 h
[1] = system: A549
[2] = system: CAKI-1
[3] = system: CCRF-CEM
[4] = system: COLO 205
[5] = system: HT-29
[6] = system: K562
[7] = system: KM12
[8] = system: LOX IMVI
[9] = system: NCI-H522
[10] = system: OVCAR-3
[11] = system: OVCAR-8
[12] = system: SK-MEL-5
[13] = system: SK-OV-3
[14] = system: SNB-19
[15] = system: SNB-75
[16] = system: SR
[17] = system: SW-620
[18] = system: U-251
[19] = system: UO-31
[20] = system: HL-60

Measured: GI50

CCC1CN2CCC3(c4ccccc4)CC(C(=O)OC)=CC1C23 (centres undefined)
inactive: [1] 17.3 µM | [2] 18.5 µM | [3] > 100 µM | [4] 16.9 µM | [5] 16.7 µM | [6] 9.46 µM | [7] 15 µM | [8] 14.6 µM | [9] 14.1 µM | [10] 19.2 µM | [11] 17.9 µM | [12] 16.4 µM | [13] 13.3 µM | [14] 20.4 µM | [15] 17.3 µM | [16] 41.3 µM | [17] 16.9 µM | [18] 16.3 µM | [19] 14.1 µM

C=C(CC[C@@H](C)[C@H]1CC[C@@]2(C)C3=C(CC[C@]12C)[C@@]1(C)CC[C@H](O)[C@@H](C)C1CC3)C(C)C (some centres undefined)
inactive: [1] 1.2 µM | [2] 1.15 µM | [4] 1.17 µM | [7] 1.26 µM | [10] 1.77 µM | [11] 1.61 µM | [12] 1.26 µM | [13] 1.6 µM | [14] 2.17 µM | [15] 1.25 µM | [17] 1.71 µM | [18] 1.39 µM | [19] 1.23 µM
active: [3] 0.414 µM | [20] 0.361 µM | [5] 0.48 µM | [6] 0.273 µM | [8] 0.906 µM | [16] 1.01 µM

CC(C)c1cccc(C(C)C)c1NC(=O)C(=O)C1CCC2=C(Sc3ccccc3N2)C1=O (centres undefined)
inactive: [1] > 100 µM | [2] 64.4 µM | [3] 24 µM | [4] 24.4 µM | [20] 74.1 µM | [5] 58.5 µM | [6] 34.9 µM | [7] > 100 µM | [8] 53.6 µM | [10] > 100 µM | [11] 38.7 µM | [12] 56.2 µM | [13] 60.8 µM | [14] > 100 µM | [15] 32.3 µM | [16] > 100 µM | [17] 12 µM | [18] 34.8 µM | [19] > 100 µM

CC1CCCN1CCCOC(=O)c1ccc(OC2C=CCCC2)cc1 (centres undefined)
inactive: [1] 42.1 µM | [3] 30.3 µM | [4] 16.6 µM | [20] 17.4 µM | [5] 17.7 µM | [6] 18.9 µM | [7] 38.2 µM | [8] 19.7 µM | [9] 20.9 µM | [10] 39.2 µM | [11] 47.6 µM | [12] 19.2 µM | [13] 56.1 µM | [14] 38.2 µM | [15] 7.74 µM | [16] 28.1 µM | [17] 20.7 µM | [18] 37.6 µM | [19] 34.2 µM

COCCOCCOCCOc1ccc(C(C#N)N(CCc2ccccc2)C(=O)c2cc(C(=O)N(CCc3ccccc3)C(C#N)c3ccc(OCCOCCOCCOC)cc3)cc(C(=O)N(CCc3ccccc3)C(C#N)c3ccc(OCCOCCOCCOC)cc3)c2)cc1 (centres undefined)
inactive: [1] > 100 µM | [3] > 100 µM | [4] > 100 µM | [20] > 100 µM | [5] > 100 µM | [6] > 100 µM | [7] > 100 µM | [8] > 100 µM | [9] > 100 µM | [10] > 100 µM | [11] > 100 µM | [12] > 100 µM | [13] > 100 µM | [14] > 100 µM | [15] > 100 µM | [16] > 100 µM | [17] > 100 µM | [18] > 100 µM | [19] > 100 µM

O=S(O)c1cc(Cl)c(O)c(Cl)c1
inactive: [3] > 100 µM | [20] > 100 µM | [5] > 100 µM | [6] > 100 µM | [7] > 100 µM | [8] > 100 µM | [9] > 100 µM | [10] > 100 µM | [13] > 100 µM | [14] > 100 µM | [15] > 100 µM | [16] > 100 µM | [18] > 100 µM | [19] > 100 µM
